Source: US12459951B2, “Compounds that interact with RAS superfamily proteins for treatment of cancers, inflammatory diseases, rasopathies, and fibrotic disease” (SHY Therapeutics, LLC, priority 2022, dated 2025)

How the values were obtained:
Test in all cases: Cell-based caspase activation assay (western blot)
Design in all cases: species or system human
[1] = system: active/cleaved caspase 3
Procedure: (§1) Biological Example 4: Puma Expression and Caspases Activation Assay
(§2) Protocols for Cell-Based Puma Expression and Caspase Activation Assays
(§3) Cell lines: All human tumor-derived cancer cell lines were purchased from American Type Culture Collection. Human tumor-derived cancer cell lines Panc-1 (expressing KRas G12D mutant), MiaPaca-2 (expressing KRas G12C mutant), A549 (expressing KRas G12S mutant), and A375 (expressing wild type KRas) were grown in complete DMEM-High Glucose medium and NCI-H1975 (expressing wild type KRas), MM.1R (expressing wild type KRas) and IM.9 (expressing wild type KRas) were grown in RPMI1640 medium. Human tumor-derived cancer cell line BT-549 (expressing wild type KRas) was grown in RPMI1640 medium with 11.8U insulin. All mediums were supplemented with penicillin (100 U/mL), streptomycin (100 μg/mL), and 10% heat-inactivated FBS at 37° C. in a humidified incubator with 5% CO2.
(§4) Method: Cells were plated at 300,000 to 800,000 cells/well density in a 6-well plate in the presence of 10% FBS. The next day small molecules to be tested were added to the cells in the final concentration of 3 μM in the presence of 0.3% DMSO for 48 hours incubation at 37° C. For IC50 value determination, serial dilutions of compounds were added to cells under the same conditions. Following 48 hours of incubation cells were lysed with lysis buffer containing 1% Triton X-100, EDTA, and Halt™ Protease & Phosphatase Inhibitor Cocktail (Thermo Scientific). Protein concentration was assessed by BCA protein assay (Thermo Scientific). Increase expression of PUMA and active/cleaved forms of caspase 3, caspase 6 and caspase 9 were detected by western blot.
(§5) Western blot protocol: Equal amounts of protein (15-50 μg) were separated by SDS-PAGE and transferred to nitrocellulose membranes (Invitrogen by Thermo Fisher Scientific). The membrane was stained with Ponceau S Stain (Boston BioProducts) to verify uniform protein loading. Membranes were blocked with 10% milk and expression levels of PUMA was assessed by incubating overnight at 4° C. with the antibody PUMA (D30C10) from Cell Signaling Technology (#12450) and active/cleaved forms of caspase 3, caspase 6 and caspase 9 by incubating overnight at 4° C. with the following antibodies: cleaved caspase-3 (Asp175) (5A1E), cleaved caspase-6 (Asp162) and cleaved caspase-9 (Asp330) (D2D4) (all antibodies from Cell Signaling Technology). Then the membranes were incubated with HRP-conjugated secondary antibody (Jackson Immunoresearch, West Grove, PA). Bands were incubated in Amersham ECL Prime Western Blotting Detection Reagent (GE Healthcare) and visualized using the ChemiDoc MP imaging system (Bio-Rad).

[2] = system: active/cleaved caspase 6
Procedure: as §1, §2, §3, §4, §5

[3] = system: active/cleaved caspase 9
Procedure: as §1, §2, §3, §4, §5

COc1ccnc(Nc2nc(-c3nccn3C)nn3cc(-c4ccn(C(C)C)n4)c(C)c23)c1 [Compound 58, 6-(1-Isopropyl-1H-pyrazol-3-yl)-N-(4-methoxypyridin-2-yl)-5-methyl-2-(1-methyl-1H-imidazol-2-yl)pyrrolo[2,1-f][1,2,4]triazin-4-amine]
yes: Caspase 3 activation ([1]; A549, after 48 hours) | Caspase 3 activation ([1]; BT-549, after 48 hours) | Caspase 3 activation ([1]; MiaPaca2, after 48 hours) | Caspase 6 activation ([2]; A549, after 48 hours) | Caspase 6 activation ([2]; BT-549, after 48 hours) | Caspase 6 activation ([2]; MiaPaca2, after 48 hours) | Caspase 9 activation ([3]; A549, after 48 hours) | Caspase 9 activation ([3]; BT-549, after 48 hours) | Caspase 9 activation ([3]; MiaPaca2, after 48 hours)
